In patent publication US5856480A, “Optically active compound” (Nippon Soda Co., Ltd., priority 1994, dated 1999):
pIC50: −log10 of the molar value.

Tests used:
[1] = Test on Stability (remaining rate by HPLC after storage at 80° C.); assay type: physicochemical; details: for Remaining Rate (%), 0 day: 80° C.; for Remaining Rate (%), 0 day / Remaining Rate (%), After 4 days: sealed vial, HPLC; for Remaining Rate (%), After 4 days: after 4 days at 80° C., 5760 min
Protocol: To 30 ml of ethanol, was dissolved 2 g of (R)-(-)-4,5-dihydro-5-methyl-6-[4-[(2-propyl-3-oxo-1-cyclohexenyl) amino]phenyl]-3(2H)-pyridazinone under heating, and the solution was place for cooling under room temperature. After condensing the solvent of the solution under reduced pressure, the solution was then dried under reduced pressure by using a vacuum pump, thereby affording 1.5 g of the noncrystalline powder of said compound of which melting point being of from 102° to 106° C.
Each 10 mg of the noncrystalline powder obtained as described above and the crystalline form obtained in the Example 2 were weighed precisely, placed in a 20 ml volume vial then sealed, respectively, and preserved for 4 days at 80° C. Then, the vials were cooled to room temperature, and subsequently the determination of the remaining rate (%) of the test compounds were conducted by using high performance liquid chromatography (HPLC).
Column: TSK-gel 80 TM 4.6 mm I.D×250 mm (Manufactured by Tosoh Corporation)
Mobile phase: Mixture of acetonitrile and distillated water (Combining rate, 60/40)
Flow Speed: 1.0 ml/min., Temperature: 40° C., Wavelength for Detection: 254 nm

[2] = Residue of Solvent (water by Karl Fischer, ethanol by GC); assay type: physicochemical; details: for Water Content (%): Karl Fischer moisture meter; for removal of remaining solvent by drying (in words): as demonstrated in Table 4; for Ethanol Content (%): gas chromatography, sample in DMSO
Protocol: By using the same noncrystalline powder and the crystalline form as the ones used in the Test Example 2, the amount of remaining solvent was analyzed.
Each 50 mg of the noncrystalline powder and the crystalline form were weighed precisely, on which water content was determined by using a Karl Fischer moisture meter, respectively. Whereas, each 50 mg of the noncrystalline powder and the crystalline form were weighed and dissolved in dimethyl sulfoxide (DMSO), respectively, and those solution were adjusted to a volume of 50 ml, respectively. A 2 μl portion out of the 50 ml solution was used for determining the ethanol content in the test sample by using gas chromatography (GC), respectively.
N2 : 25 ml/min, Air: 0.6 kg/cm^2, H2 : 0.6 kg/cm^2
Temperature : 180° C. at Column; 220° C. at Injection site, 220° C. at Detection site.

[3] = tested on: platelet aggregation induced by adenosine diphosphate (ADP); assay: Inhibitory effect on platelet aggregation induced by ADP, in vitro, PRP; assay type: cell-based, rabbits; details: Oryctolagus cuniculus, 10 μM ADP, rabbit PRP, 3 min pre-incubation, measured 5 min, read-out: Inhibition of Platelet Aggregation (IC50), ADP
Protocol: (§1) In vitro inhibitory activity of the compound of the present invention was evaluated on platelet aggregation each induced by adenosine diphosphate (ADP), collagen, arachidonic acid, U-46619 and thrombin, respectively, by using an aggregation meter (type: hematracer PAT-606, manufactured by Niko bioscience Co., Ltd). 0.38% citric acid-containing blood collected from rabbits was centrifuged at 1,200 rpm for 15 min. to thereby obtain platelet rich plasma (hereinafter referred to as PRP). The PRP obtained was further centrifuged at 3,500 rpm for 10 min., and the supernatant was used as platelet poor plasma (hereinafter referred to as PPP). The platelets in the PRP were prepared by dilution with PPP to a concentration of 2 to 5×10^8 cells/ml, and 10 μM of ADP, 20 μg/ml of collagen, 200 μg/ml of arachidonic acid, 10 μM of U-46619 and 0.5 U/ml of thrombin are used for the induction of platelet aggregation, respectively, where all of those concentrations are expressed in the final concentration. The test compound was dissolved in dimethyl sulfoxide (DMSO), and to 0.2 μl of the solution thus obtained, was added 0.2 ml of the sample of PRP prepared as described above, then the solution was placed for pre-incubation for 3 min. Then, each 22 μl of the said aggregation-inducing agents, ADP, collagen, U-46619 and thrombin, and 2.2 μl of arachidonic acid, were added thereto, respectively, then platelet aggregation was measured for 5 min., except for collagen, for which the measurement was conducted for 10 min. The inhibitory effect on platelet aggregation was expressed as inhibition rate (%) respective to the maximum aggregation rate obtained in the control plot. [formula]
(§2) A dose-response curve was prepared, and from which IC50, a dose attainable 50% inhibition of platelet aggregation, was determined.

[4] = tested on: platelet aggregation induced by collagen; assay: Inhibitory effect on platelet aggregation induced by collagen, in vitro, PRP; assay type: cell-based, rabbits; details: Oryctolagus cuniculus, 20 μg/ml collagen, rabbit PRP, 3 min pre-incubation, measured 10 min, read-out: Inhibition of Platelet Aggregation (IC50), Collagen
Protocol: as §1, §2

[5] = tested on: platelet aggregation induced by arachidonic acid; assay: Inhibitory effect on platelet aggregation induced by arachidonic acid, in vitro, PRP; assay type: cell-based, rabbits; details: Oryctolagus cuniculus, 200 μg/ml arachidonic acid, rabbit PRP, 3 min pre-incubation, measured 5 min, read-out: Inhibition of Platelet Aggregation (IC50), Arachidonic Acid
Protocol: as §1, §2

[6] = tested on: platelet aggregation induced by U-46619; assay: Inhibitory effect on platelet aggregation induced by U-46619, in vitro, PRP; assay type: cell-based, rabbits; details: Oryctolagus cuniculus, 10 μM U-46619, rabbit PRP, 3 min pre-incubation, measured 5 min, read-out: Inhibition of Platelet Aggregation (IC50), U-46619
Protocol: as §1, §2

[7] = tested on: platelet aggregation induced by thrombin; assay: Inhibitory effect on platelet aggregation induced by thrombin, in vitro, PRP; assay type: cell-based, rabbits; details: Oryctolagus cuniculus, 0.5 U/ml thrombin, rabbit PRP, 3 min pre-incubation, measured 5 min, read-out: Inhibition of Platelet Aggregation (IC50), Thrombin
Protocol: as §1, §2

platelet aggregation = assay: Inhibitory effect on platelet aggregation, overall statement; assay type: cell-based, rabbits; details: same procedure as Test Example 1; crystalline compound of Example 2
Protocol: as §1, with “The platelets in the PRP were prepared by dilution with PPP to a concentration of 2 to 5×10^8 cells/ml, and 10 μM of ADP, 20 μg/ml of collagen, 200 μg/ml of arachidonic acid, 10 μM of U-46619 and 0.5 U/ml of thrombin are used for the induction of platelet aggregation, respectively, where all of those concentrations are expressed in the final concentration. The test compound was dissolved in dimethyl sulfoxide (DMSO), and to 0.2 μl of the solution thus obtained, was added 0.2 ml of the sample of PRP prepared as described above, then the solution was placed for pre-incubation for 3 min.” left out, “[formula]” left out

SMILES | Remaining Rate (%), 0 day [1] | Remaining Rate (%), After 4 days [1] | Water Content (%) [2] | removal of remaining solvent by drying (in words) [2] | Ethanol Content (%) [2] | pIC50 [3] | pIC50 [4] | pIC50 [5] | pIC50 [6] | pIC50 [7] | inhibitory effect on platelet aggregation (in words) (platelet aggregation) | stability (in words) ([1]; 4 days at 80° C., crystalline form versus noncrystalline powder)
CCCC1=C(Nc2ccc(C3=NNC(=O)C[C@H]3C)cc2)CCCC1=O [Noncrystalline powder, (R)-(-)-4,5-dihydro-5-methyl-6-[4-[(2-propyl-3-oxo-1-cyclohexenyl)amino]phenyl]-3(2H)-pyridazinone] | 100% | 58% | 1.3% | difficult to completely remove the remaining solvent | 4.3% |  |  |  |  |  |  | 
CCCC1=C(Nc2ccc(C3=NNC(=O)CC3C)cc2)CCCC1=O (racemic) [(±)-(I), 4,5-dihydro-5-methyl-6-[4-[(2-propyl-3-oxo-1-cyclohexenyl)amino]phenyl]-3(2H)-pyridazinone] |  |  |  |  |  | 5.35 | 5.46 | 5.77 | 5.82 | 5.52 |  | 
CCCC1=C(Nc2ccc(C3=NNC(=O)C[C@H]3C)cc2)CCCC1=O [Crystalline form, (R)-(-)-4,5-dihydro-5-methyl-6-[4-[(2-propyl-3-oxo-1-cyclohexenyl)amino]phenyl]-3(2H)-pyridazinone] | 100% | 96% | 0.2% | easy to dry | 0.2% |  |  |  |  |  | excellent inhibitory effect on platelet aggregation similar to the effect of the noncrystalline compound, (R)-(-)-(I) | superior than that of the noncrystalline powder
CCCC1=C(Nc2ccc(C3=NNC(=O)C[C@H]3C)cc2)CCCC1=O (single isomer, unassigned) [(R)-(-)-(I)] |  |  |  |  |  | 5.54 | 5.60 | 6.09 | 6.42 | 5.82 |  | 
CCCC1=C(Nc2ccc(C3=NNC(=O)C[C@@H]3C)cc2)CCCC1=O [(S)-(-)-(I)] |  |  |  |  |  | 3.11 | 3.00 | 3.54 | < 4.00 | 3.25 |  | 
